From ChEMBL document CHEMBL3879881, “Substituted pyrazolyl compounds for the treatment of inflammation” (2005)

Each molecule was assayed against T1, Inhibitor of nuclear factor kappa-B kinase subunit beta (Homo sapiens, UniProt O14920) (assay: Inhibition of human recombinant C-terminal FLAG-epitope-tagged IKK2 expressed in baculovirus using biotinylated IkappaBalpha peptide as substrate assessed as decrease in [gamma-33P]-ATP incorporation in substrate after 30 mins by scintillation counting method).
T1 sequence (O14920 whole entry): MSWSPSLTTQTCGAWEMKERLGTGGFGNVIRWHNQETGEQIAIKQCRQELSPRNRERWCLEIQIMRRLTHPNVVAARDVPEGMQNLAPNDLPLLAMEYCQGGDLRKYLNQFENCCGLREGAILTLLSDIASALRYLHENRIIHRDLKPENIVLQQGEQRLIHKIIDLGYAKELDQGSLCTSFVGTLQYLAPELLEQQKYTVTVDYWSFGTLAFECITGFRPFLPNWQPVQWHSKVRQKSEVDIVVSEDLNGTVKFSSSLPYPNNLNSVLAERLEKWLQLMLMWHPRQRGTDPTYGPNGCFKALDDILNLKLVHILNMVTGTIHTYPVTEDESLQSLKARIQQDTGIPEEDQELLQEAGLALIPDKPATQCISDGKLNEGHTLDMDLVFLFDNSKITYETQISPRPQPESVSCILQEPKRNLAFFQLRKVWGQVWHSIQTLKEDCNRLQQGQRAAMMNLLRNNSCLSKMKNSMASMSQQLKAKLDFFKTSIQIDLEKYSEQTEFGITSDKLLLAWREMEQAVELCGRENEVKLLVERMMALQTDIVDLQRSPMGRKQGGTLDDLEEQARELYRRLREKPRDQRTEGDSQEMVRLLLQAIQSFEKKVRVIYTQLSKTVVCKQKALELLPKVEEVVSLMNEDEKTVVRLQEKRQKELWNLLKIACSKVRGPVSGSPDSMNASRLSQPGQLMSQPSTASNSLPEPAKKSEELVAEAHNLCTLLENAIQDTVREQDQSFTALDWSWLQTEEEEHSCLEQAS

Row | SMILES | IC50
1 | NC(=O)c1nn(-c2ccc(-c3cccnc3)cc2)c2c1CCc1ccc(NC(=O)c3ccccc3Cl)cc1-2 | 1 to 10 µM
2 | NC(=O)c1nn(-c2ccc(C(=O)O)cc2)c2c1CCc1ccc(NC(=O)c3ccccc3Cl)cc1-2 | 1 to 10 µM
3 | NCCCS(=O)(=O)c1ccc(-n2nc(C(N)=O)c3c2-c2cc(NC(=O)c4cccnc4Cl)ccc2CC3)cc1 | 1 to 10 µM
4 | NC(=O)c1nn(-c2ccc(S(N)(=O)=O)cc2)c2c1CCc1ccc(NS(=O)(=O)c3ccc(Br)cc3)cc1-2 | 1 to 10 µM
5 | CC(=O)/C=C/c1ccc(-n2nc(C(N)=O)c3c2-c2cc(NC(=O)c4ccccc4Cl)ccc2CC3)cc1 | ≤ 1 µM
6 | Cn1cnc(S(=O)(=O)Nc2ccc3c(c2)-c2c(c(C(N)=O)nn2-c2ccc(S(N)(=O)=O)cc2)CC3)c1 | 10 to 100 µM
7 | NC(=O)c1nn(-c2ccc(S(N)(=O)=O)cc2)c2c1CCc1ccc(NC(=O)C34CC5CC(CC(C5)C3)C4)cc1-2 | 1 to 10 µM
8 | CN1CCN(c2ncc(Cl)c(C(=O)Nc3ccc4c(c3)-c3c(c(C(N)=O)nn3-c3ccc5c(c3)OCO5)CC4)n2)CC1 | ≤ 1 µM
9 | CC(=O)c1ccc(-n2nc(C(N)=O)c3c2-c2cc(NC(=O)c4cccnc4Cl)ccc2CC3)cc1 | 1 to 10 µM
10 | COc1ccc(S(=O)(=O)Nc2ccc3c(c2)-c2c(c(C(N)=O)nn2-c2ccc(S(N)(=O)=O)cc2)CC3)cc1 | 10 to 100 µM
11 | COCCN1CCN(c2cc(C(=O)Nc3ccc4c(c3)-c3c(c(C(N)=O)nn3-c3ccc(F)cc3)CC4)c(Cl)cn2)CC1 | ≤ 1 µM
12 | NC(=O)c1nn(-c2ccc(S(N)(=O)=O)cc2)c2c1CCc1ccc(NS(=O)(=O)c3cc(Cl)c(Cl)cc3Cl)cc1-2 | 1 to 10 µM
13 | Cc1cc(Cl)ncc1C(=O)Nc1ccc2c(c1)-c1c(c(C(N)=O)nn1-c1ccc3c(c1)OCO3)CC2 | ≤ 1 µM
14 | NC(=O)c1nn(-c2ccc(S(N)(=O)=O)cc2)c2c1CCc1ccc(NC(=O)c3cccs3)cc1-2 | 10 to 100 µM
15 | Cc1cccc(C(=O)Nc2ccc3c(c2)-c2c(c(C(N)=O)nn2-c2ccc(S(C)(=O)=O)cc2)CC3)c1[N+](=O)[O-] | 1 to 10 µM
16 | CCNC(=O)Nc1ccc2c(c1)-c1c(c(C(N)=O)nn1-c1ccc(S(N)(=O)=O)cc1)CC2 | 1 to 10 µM
17 | CN1CC=C(c2cc(C(=O)Nc3ccc4c(c3)-c3c(c(C(N)=O)nn3-c3ccc(F)cc3)CC4)c(Cl)cn2)CC1 | ≤ 1 µM
18 | COc1cccc(-n2nc(C(N)=O)c3c2-c2cc(NC(=O)c4ccccc4Cl)ccc2CC3)c1 | 1 to 10 µM
19 | NC(=O)c1nn(-c2ccc(S(N)(=O)=O)cc2)c2c1CCc1ccc(NC(=O)c3ccccc3)cc1-2 | 1 to 10 µM

Row | SMILES | IC50
20 | CC1(C)OCC(COc2ccc(-n3nc(C(N)=O)c4c3-c3cc(NC(=O)c5ccccc5Cl)ccc3CC4)cc2)O1 (configuration not stated) | ≤ 1 µM
21 | C[S+]([O-])c1ccc(-n2nc(C(N)=O)c3c2-c2cc(NC(=O)c4cccnc4Cl)ccc2CC3)cc1 (configuration not stated) | ≤ 1 µM
22 | NC(=O)c1nn(-c2ccc3c(c2)OCO3)c2c1CCc1ccc(NC(=O)c3nc(Cl)ccc3Cl)cc1-2 | 1 to 10 µM
23 | NC(=O)c1nn(-c2ccc(S(N)(=O)=O)cc2)c2c1CCc1ccc(NS(=O)(=O)c3ccc(F)c(F)c3)cc1-2 | 10 to 100 µM
24 | COc1cccc(C(=O)Nc2ccc3c(c2)-c2c(c(C(N)=O)nn2-c2ccc(S(N)(=O)=O)cc2)CC3)c1 | ≤ 1 µM
25 | NC(=O)c1nn(-c2ccc(F)cc2)c2c1CCc1ccc(NC(=O)c3cc(Cl)ncc3Cl)cc1-2 | ≤ 1 µM
26 | CC1Cc2c(C(N)=O)nn(-c3ccc(F)cc3F)c2-c2cc(NC(=O)c3ccncc3Cl)ccc21 (configuration not stated) | ≤ 1 µM
27 | NC(=O)c1nn(-c2cc(F)c(N)c(F)c2)c2c1CCc1ccc(NC(=O)c3ccncc3Cl)cc1-2 | ≤ 1 µM
28 | CC(=O)CCc1ccc(-n2nc(C(N)=O)c3c2-c2cc(NS(C)(=O)=O)ccc2CC3)cc1 | 1 to 10 µM
29 | CN(C)CCN(C)c1cc(C(=O)Nc2ccc3c(c2)-c2c(c(C(N)=O)nn2-c2ccc(F)cc2)CC3)c(Cl)cn1 | ≤ 1 µM
30 | NC(=O)c1nn(-c2ccc(F)cc2)c2c1CCc1ccc(NC(=O)c3cc(N4CCN(CCO)CC4)ncc3Cl)cc1-2 | ≤ 1 µM
31 | NC(=O)c1nn(-c2ccc3c(c2)OCO3)c2c1CCc1ccc(NC(=O)c3nc(CN4CCOCC4)ccc3Cl)cc1-2 | ≤ 1 µM
32 | NC(=O)c1nn(-c2ccc(NC(=O)c3ccccc3)cc2)c2c1CCc1ccc(NC(=O)c3ccccc3Cl)cc1-2 | 1 to 10 µM
33 | CCCCS(=O)(=O)Nc1ccc2c(c1)-c1c(c(C(N)=O)nn1-c1ccc(S(N)(=O)=O)cc1)CC2 | 1 to 10 µM
34 | CCCCS(=O)(=O)c1ccc(-n2nc(C(N)=O)c3c2-c2cc(NC(=O)c4ccccc4Cl)ccc2CC3)cc1 | 1 to 10 µM
35 | NC(=O)c1nn(-c2ccc(S(N)(=O)=O)cc2)c2c1CCc1ccc(NS(=O)(=O)CC(F)(F)F)cc1-2 | 1 to 10 µM
36 | NC(=O)c1nn(-c2ccc(S(=O)(=O)CC3CC3)cc2)c2c1CCc1ccc(NC(=O)c3ccccc3Cl)cc1-2 | 1 to 10 µM
37 | NC(=O)c1nn(-c2ccc(S(N)(=O)=O)cc2)c2c1CCc1ccc(NC(=O)C3CCCCC3)cc1-2 | 1 to 10 µM
38 | Cc1nnsc1C(=O)Nc1ccc2c(c1)-c1c(c(C(N)=O)nn1-c1ccc3c(c1)OCO3)CC2 | 1 to 10 µM

Row | SMILES | IC50
39 | NC(=O)c1nn(-c2ccc(/C=C/C(=O)NCc3ccccc3)cc2)c2c1CCc1ccc(NC(=O)c3ccccc3Cl)cc1-2 | 1 to 10 µM
40 | Cc1ccn2c(C)c(C(=O)Nc3ccc4c(c3)-c3c(c(C(N)=O)nn3-c3ccc(S(C)(=O)=O)cc3)CC4)nc2c1 | 1 to 10 µM
41 | C[C@@H]1CN(c2cc(C(=O)Nc3ccc4c(c3)-c3c(c(C(N)=O)nn3-c3ccc(F)cc3)CC4)c(Cl)cn2)C[C@H](C)N1 | ≤ 1 µM
42 | NC(=O)c1nn(-c2ccc(OCC(O)CO)cc2)c2c1CCc1ccc(NC(=O)c3cc(N)ccc3Cl)cc1-2 (configuration not stated) | ≤ 1 µM
43 | NC(=O)c1nn(-c2cccc(F)c2)c2c1CCc1ccc(NC(=O)c3cccc(Cl)c3Cl)cc1-2 | 1 to 10 µM
44 | NC(=O)c1nn(-c2ccc3c(c2)OCO3)c2c1CCc1ccc(NC(=O)CN3CCCC3)cc1-2 | 1 to 10 µM
45 | NC(=O)c1nn(-c2ccc(-c3ccc(C(=O)O)cc3)cc2)c2c1CCc1ccc(NC(=O)c3ccccc3Cl)cc1-2 | 1 to 10 µM
46 | Cc1ncccc1C(=O)Nc1ccc2c(c1)-c1c(c(C(N)=O)nn1-c1ccc3c(c1)OCO3)CC2 | 1 to 10 µM
47 | NC(=O)c1nn(-c2ccc(S(N)(=O)=O)cc2)c2c1CCc1ccc(NS(=O)(=O)c3ccc(Cl)c(Cl)c3)cc1-2 | 1 to 10 µM
48 | CC(C)C(=O)Nc1ccc2c(c1)-c1c(c(C(N)=O)nn1-c1ccc(S(N)(=O)=O)cc1)CC2 | 1 to 10 µM
49 | NC(=O)c1nn(-c2ccc(S(N)(=O)=O)cc2)c2c1CCc1ccc(NC(=O)c3ccccc3Cl)cc1-2 | ≤ 1 µM
50 | COc1ccc([N+](=O)[O-])c(C(=O)Nc2ccc3c(c2)-c2c(c(C(N)=O)nn2-c2ccc4c(c2)OCO4)CC3)c1 | 1 to 10 µM
51 | NC(=O)c1nn(-c2ccc(OCC(O)CO)cc2)c2c1CCc1ccc(NC(=O)c3ccccc3Cl)cc1-2 (configuration not stated) | ≤ 1 µM
52 | COc1ccccc1C(=O)Nc1ccc2c(c1)-c1c(c(C(N)=O)nn1-c1ccc(S(N)(=O)=O)cc1)CC2 | 10 to 100 µM
53 | CC(=O)c1ccc(C(=O)Nc2ccc3c(c2)-c2c(c(C(N)=O)nn2-c2ccc4c(c2)OCO4)CC3)cc1 | 1 to 10 µM
54 | NC(=O)c1nn(-c2ccc(S(N)(=O)=O)cc2)c2c1CCc1ccc(NS(=O)(=O)C(F)(F)F)cc1-2 | 10 to 100 µM
55 | C[C@H](N)C(=O)Nc1ccc2c(c1)-c1c(c(C(N)=O)nn1-c1ccc(S(N)(=O)=O)cc1)CC2 | 1 to 10 µM
56 | NC(=O)c1nn(-c2ccc(OCC(O)CO)cc2)c2c1CCc1ccc(NC(=O)c3ccncc3Cl)cc1-2 (configuration not stated) | ≤ 1 µM
57 | NC(=O)c1nn(-c2ccc(S(=O)(=O)N3CCOCC3)cc2)c2c1CCc1ccc(N)cc1-2 | 1 to 10 µM
